Laboratory results reported in patent US20100303896A1, “5BETA, 14BETA-ANDROSTANE DERIVATIVES USEFUL FOR THE TREATMENT OF RESTENOSIS AFTER ANGIOPLASTIC OR ENDOARTHERECTOMY AND DISEASES DUE TO ORGAN FIBROSIS” (SIGMA-TAU INDUSTRIE FARMACEUTICHE RIUNITE S.P.A., priority 2007, published 2010).
Where “and” joins values, the source holds several entries; their conditions need not be identical. Identical values can stand only once. Entries after “also recorded” stand apart in the source; their conditions may differ.

Key:
Type in all cases: in vivo, rat
[1] = test system: MHS rats with CCl4-induced liver fibrosis; test: CCl4-induced liver fibrosis: serum albuminemia and transaminases (ALT and AST)
From the text: (§1) To test the activity of the compound of the invention for the prevention and treatment of organ fibrosis, spontaneous hypertensive MHS rats with genetic arterial hypertension (Bianchi G., Barber B. R., Torielli L., Ferrari P. The Milan hypertensive strain of rats. Genetic Model of Hypertension. 1994; 22: 457-460) were used. MHS rats are available at Prassis Research Institute, Sigma-tau, Italy.
(§2) Liver fibrosis was induced by CCl4 oral administration as described in J. Hepatol. 1999; 30: 621-631, with minor modifications: 0.375 ml/kg of CCl4 dissolved in olive oil was administered three times per week for three weeks by oral gavage to rats starting from the 7th week after weaning. Control rats received only the vehicle (olive oil). Rostafuroxin treatment started 7 weeks before the induction of liver fibrosis by CCl4 administration (pretreatment) and was continued during the CCl4 treatment for three weeks. Rostafuroxin was orally administered at 1 mg/kg/day, suspended in Methocel (0.5%). A total of twenty four MHS rats of 25 days of age (weaning) were subdivided in three groups of 8 rats each: the first group, considered as negative control for liver fibrosis induction (Ctr.), was orally treated with the Rostafuroxin vehicle (Methocel 0.5%) along the entire period (10 weeks) and received the olive oil as vehicle of CCl4 at the 7th week after weaning for three weeks; the second group, considered as positive control for liver fibrosis (Ctr. LF), was orally treated with the Rostafuroxin vehicle (Methocel 0.5%) along the entire period (10 weeks) and received CCl4 at the 7th week after weaning for three weeks; the third group, Rostafuroxin treated with liver fibrosis (RLF), received Rostafuroxin at 1 mg/kg along the entire period (10 weeks) and received CCl4 at the 7th week after weaning for three weeks. At the end of the treatment (10th week), rats were weighed and anaesthetized with pentobarbital for blood sampling and organ removal. The blood was let clotted and serum separated after centrifugation and saved for measurement of serum albuminemia and transaminases (ALT and AST) on a Pentra 400 (ABX) Automatic Hematology Analyzer. Spleen and liver were removed and weighed. Samples of the liver median lobe were immediately frozen in liquid nitrogen and kept at −80° for further biochemical measurement of the 4-Hydroxiproline liver content, taken as an index of collagen deposition (Biochem. J. 1961; 80(1): 148-154). The rest of the liver was preserved in a 10% buffered formalin solution for the histological analysis.

[2] = test system: MHS rats with CCl4-induced liver fibrosis; test: CCl4-induced liver fibrosis: body and organ weights
From the text: as §1, §2

[3] = test system: spontaneous hypertensive MHS rats; test: Prevention of restenosis after carotid surgical injury (endoartherectomy model), morphometry of the carotid lumen area
From the text: To test the activity of the compound of the invention for the prevention of restenosis after endoartherectomy, spontaneous hypertensive MHS rats with genetic arterial hypertension (Bianchi G., Barber B. R., Torielli L., Ferrari P. The Milan hypertensive strain of rats. Genetic Model of Hypertension. 1994; 22: 457-460) were used. MHS rats are available at Prassis Research Institute, Sigma-tau, Italy.
After this period rats were subjected to the vascular surgical injury according to the protocol listed below. After surgical injury, rats were maintained under treatment either with vehicle or Rostafuroxin for further 30 days and then sacrificed for carotid artery sampling. […] The final number of rats used for the histological carotid analysis was; MHS vehicle=7, MHS Rostafuroxin=9.
(§3) The carotid surgical injury model used on MHS and MNS rat is described in J. Cell. Physiol. 2001; 186:307-313.
(§4) Briefly, a plastic Scanlon clamp for coronary artery bypass grafting was placed for 10 seconds on the carotid artery in order to cause a crushing lesion to vessel. At the same point where the clamp was applied, a 0.5 mm longitudinal incision was performed on the full thickness of the carotid artery. […] Hemostasis was obtained with a single adventitial 8.0-gauge polypropylene stitch. Once bleeding stopped, the carotid artery was carefully examined and blood pulsation was checked distally to the incision.
Carotid arteries were taken 30 days after injury. […]
(§5) For each injured carotid, at least 60 serial cross-sections were observed under a light microscope at 20× magnification; image screening and photography were performed using Leica IM 1000 System (Leica, Wetzlar, Germany). The sections of injured carotids showing maximal remodelling and proliferative phenomena were identified and further analyzed.
(§6) Lumen and medial areas were measured using the Leica IM 1000 software (Leica, Heerbrugg, Switzerland). […] For each contralateral uninjured carotid, at least 10 sections were analyzed and the average media and lumen areas were calculated. […]

[4] = test system: MNS rats without arterial hypertension; test: Prevention of restenosis after carotid surgical injury, morphometry of the carotid lumen area; conditions: 100 μg/kg orally, carotid taken 30 days after injury
Protocol: as §3, §4
Carotid arteries were taken 30 days after injury. Rats were anaesthetized and carotids were dissected free from the surrounding tissues. […]
as §5, §6

[5] = test system: MHS rats with CCl4-induced liver fibrosis; test: CCl4-induced liver fibrosis: histopathology and qualitative fibrosis score on Syrius red stained slides; set-up: key to Liver fibrosis score, histological appearance (FIG. 8): 0: Absence of liver fibrosis, but normal staining pattern only; 1: Mild degree, corresponding to centrilobular/periportal fibrosis, with predominantly uncomplete septal expansion—mild focal interstitial fibrosis; 2: Moderate degree, corresponding to diffuse bridging fibrosis, with focal nodular appearance—multifocal interstitial fibrosis; 3: Severe degree, corresponding to confluent fibrosis, with diffuse nodular appearance—severe diffuse interstitial fibrosis
From the text: as §1, §2
For each case, the median and the left lobes of the liver were subjected to standard trimming and embedding procedures; slides were stained with Hematoxylin and Eosin (H&E) (Laboratory Methods in Histotechnology; Armed Forces Institute of Pathology Published by the American Registry of Pathology Washington, D.C. 1992). Special techniques were also applied in order to allow proper connective tissue detection (Masson's Trichrome stain—Laboratory Methods in Histotechnology; Armed Forces Institute of Pathology Published by the American Registry of Pathology Washington, D.C. 1992) as well as specific collagen detection and hepatic fibrosis evaluation (Syrius red staining method as described in The Journal of Histochemistry and Citochemistry 1985; vol 33, No. 8, pp. 737-743).
Liver fibrosis was qualitatively scored on Syrius red stained slides as follows:
0=Absence of liver fibrosis, but normal staining pattern only;
1=Mild degree, corresponding to centrilobular/periportal fibrosis, with predominantly uncomplete septal expansion—mild focal interstitial fibrosis;
2=Moderate degree, corresponding to diffuse bridging fibrosis, with focal nodular appearance—multifocal interstitial fibrosis;
3=Severe degree, corresponding to confluent fibrosis,
with diffuse nodular appearance—severe diffuse interstitial fibrosis. […]

[6] = test system: MHS rats with CCl4-induced liver fibrosis; test: CCl4-induced liver fibrosis: hydroxyproline liver content
From the text: as §1
as §2, with “At the end of the treatment (10th week), rats were weighed and anaesthetized with pentobarbital for blood sampling and organ removal. The blood was let clotted and serum separated after centrifugation and saved for measurement of serum albuminemia and transaminases (ALT and AST) on a Pentra 400 (ABX) Automatic Hematology Analyzer. Spleen and liver were removed and weighed. Samples of the liver median lobe were immediately frozen in liquid nitrogen and kept at −80° for further biochemical measurement of the 4-Hydroxiproline liver content, taken as an index of collagen deposition (Biochem. J. 1961; 80(1): 148-154). The rest of the liver was preserved in a 10% buffered formalin solution for the histological analysis.” left out
Hydroxyproline liver content was determined as described in Anal. Biochem. 1981; 112: 70-75, with slight modifications.
Liver tissue (0.4 g) was homogenized in 3 ml 6 N HCl and hydrolyzed at 110° C. for 24 h. […] After cooling, the absorbance was measured at 558 nm (Jasco V-530).

[7] = test system: MHS rats with CCl4-induced liver fibrosis; test: CCl4-induced liver fibrosis: quantitative histomorphometric analysis of fibrotic area (Sirius Red, ImageJ)
From the text: as §1
Liver fibrosis was induced by CCl4 oral administration as described in J. Hepatol. 1999; 30: 621-631, with minor modifications: 0.375 ml/kg of CCl4 dissolved in olive oil was administered three times per week for three weeks by oral gavage to rats starting from the 7th week after weaning. Control rats received only the vehicle (olive oil). Rostafuroxin treatment started 7 weeks before the induction of liver fibrosis by CCl4 administration (pretreatment) and was continued during the CCl4 treatment for three weeks. Rostafuroxin was orally administered at 1 mg/kg/day, suspended in Methocel (0.5%). […]
A quantitative analysis of the degree of fibrosis, following the histological qualitative analysis, was performed by digital imaging conversion of the histological pictures by a previously described method (J. Gastroenterol. 2004, Oct. 1; 10(19)2894-2897).
Briefly, after staining with Sirius Red, liver collagen content was measured by histomorphometric method. […] Each picture was analyzed by computer system ImageJ version 1.39 for digital image analysis. […] The fibrotic area with positive staining were automatically selected, outlined and evaluated. Relative content of collagen was calculated as a percentage of positive staining pixels on the total number of pixels of the picture.

[8] = RLF group, 1 mg/kg os for 10 weeks + CCl4, individual rats, 1 mg/kg
[9] = rats with CCl4-induced liver fibrosis, 1 mg/kg os
[10] = rats with CCl4-induced liver fibrosis, vs Ctr. LF, statistically significant

In the case of `C[C@]12CC[C@H](O)C[C@H]1CC[C@@H]1[C@@H]2CC[C@]2(C)[C@@](O)(c3ccoc3)CC[C@]12O` [Rostafuroxin, 17 beta-(3-Furyl)-5 beta-androstane-3beta, 14 beta, 17 alpha-triol], the “Albumin, mean” value ([1]; RLF group, 1 mg/kg os for 10 weeks + CCl4, group mean (n=8), Ctr. LF mean 3.02) is reported as 3.53 g/dL, the Albumin [1, 8] is reported as 3.65 g/dL and 3.36 g/dL and 4.15 g/dL and 2.95 g/dL and 3.19 g/dL and 3.07 g/dL and 3.82 g/dL and 4.04 g/dL and the “Transaminases (ALT and AST)” value [1, 9] is reported as “not modified”. For the same molecule, the “Increase of plasma levels of albumin” value [1, 10] was 16.8%, the “Spleen/bw, mean” value ([2]; RLF group, 1 mg/kg os for 10 weeks + CCl4, group mean (n=8), Ctr. LF mean 0.355) was 0.284% and the Spleen/bw [2, 8] was 0.251% and 0.316% and 0.261% and 0.262% and 0.247% and 0.302% and 0.348% and 0.288%. The “Weight of the liver” value [2, 9] was “not modified”, the “Reduction of spleen weight” value [2, 10] was 20% and the “Change in arterial restenosis vs vehicle” value ([3]; MHS rats with arterial hypertension, vs vehicle, statistically significant) was −45%. The “Carotid lumen area, Injured/Uninjured carotid ratio, mean” value ([3]; MHS rats, 100 μg/kg orally, carotid taken 30 days after injury, group mean (n=9), vehicle mean 0.379) was 0.680, the “Carotid lumen area, Injured/Uninjured carotid ratio” value ([3]; MHS rats, 100 μg/kg orally, carotid taken 30 days after injury, individual animals) was 0.86 and 0.83 and 0.81 and 0.66 and 0.54 and 0.36 and 0.25 and 0.90 and 0.89 and the “Carotid lumen area, Injured/Uninjured carotid ratio, mean” value ([4]; group mean (n=10), vehicle mean 0.540) was 0.765. For the same molecule, the “Carotid lumen area, Injured/Uninjured carotid ratio” value ([4]; individual animals) was 0.93 and 0.83 and 0.80 and 0.76 and 0.75 and 0.68 and 0.59 and 0.36 and 1.00 and 0.95, the “Extension of liver tissue damage (histopathology)” value ([5]; CCl4-treated rats, 1 mg/kg os, compared with Ctr. LF group, 1 mg/kg) was “minor extension of tissue damage; also recorded: less extended tissue damage” and the “Liver fibrosis Absence (score 0), % of rats” value ([5]; RLF group, 1 mg/kg OS + CCl4) was 0%. For the same molecule, the “Liver fibrosis Absence (score 0), No. of rats” value ([5]; RLF group, 1 mg/kg OS + CCl4) was 0/8, the “Liver fibrosis Mild (score 1), % of rats” value ([5]; RLF group, 1 mg/kg OS + CCl4) was 75% and the “Liver fibrosis Mild (score 1), No. of rats” value ([5]; RLF group, 1 mg/kg OS + CCl4) was 6/8. For the same molecule, the “Liver fibrosis Moderate (score 2), % of rats” value ([5]; RLF group, 1 mg/kg OS + CCl4) was 25%, the “Liver fibrosis Moderate (score 2), No. of rats” value ([5]; RLF group, 1 mg/kg OS + CCl4) was 2/8 and the “Liver fibrosis Severe (score 3), % of rats” value ([5]; RLF group, 1 mg/kg OS + CCl4) was 0%. The “Liver fibrosis Severe (score 3), No. of rats” value ([5]; RLF group, 1 mg/kg OS + CCl4, 1 mg/kg) was “no rats and 0/8”, the “Liver fibrosis score, histological appearance (FIG. 8)” value ([5]; liver from two CCl4 rats treated at 1 mg/kg os (RLF group)) was 1 and the “Liver hydroxyproline, mean” value ([6]; RLF group, 1 mg/kg os for 10 weeks + CCl4, group mean (n=8), Ctr. LF mean 1596.45) was 1184.9 μg/g prot. For the same molecule, the Liver hydroxyproline [6, 8] was 886.5 μg/g prot and 791.6 μg/g prot and 1217.4 μg/g prot and 811.0 μg/g prot and 799.8 μg/g prot and 2762.3 μg/g prot and 750.0 μg/g prot and 1460.7 μg/g prot, the “Reduction of liver content of hydroxyproline” value ([6]; rats with CCl4-induced liver fibrosis, vs Ctr. LF) was 25.8% and the “% FIBROTIC AREA, mean” value ([7]; RLF group, 1 mg/kg os for 10 weeks + CCl4, group mean (n=8), Ctr. LF mean 10.48) was 5.50%. The “% FIBROTIC AREA” value [7, 8] was 4.64% and 5.50% and 1.44% and 6.63% and 6.89% and 5.08% and 11.80% and 2.01% and the “Reduction of liver fibrotic area” value [7, 10] was 47.5%.
